Measurements: patent US6414024B1, “GABA and L-glutamic acid analogs for antiseizure treatment” (Northwestern University, priority 1990, dated 2002)
pIC50: −log10 of the molar value. Where two headings read alike, the source gives them in different places.

Legend:
[1] = system: tonic hindlimb extensor seizures in mice; assay: Threshold maximal (low-intensity) electroshock, tonic extensor seizures; format: in vivo; details: for ED50: IV, mouse, 17 mA
Experimental: Threshold maximum electroshock is an animal model test for generalized seizures that is similar to that of Piredda S G, et al, Pharmacol. and Exptl. Therap. […] The methods for this test are described as follows.
Male CF-1 mice (22-30 g) were allowed free access to food and water prior to testing. For screening, groups of five mice were given a compound intravenously at doses of 30, 100, and 300 mg/kg and tested at 0.5, 2.0, and 4.0 hours after dosing. Drugs were either dissolved in 0.9% saline or suspended in 0.2% methylcellulose. Animals were shocked with corneal electrodes (see below) and observed for tonic hindlimb extensor seizures. Absence of hindlimb extension was taken as an anticonvulsant effect.
The electroshock apparatus delivered a 60 Hz sine wave with a current amplitude of 14 mA (peak-to-peak) for 0.2 seconds.
(§1) For anticonvulsant testing, male CF-1 strain mice (20-25 g) and male Sprague-Dawley rats (75-115 g) were obtained from Charles River Laboratories and were maintained with free access to food and water before testing. […] Briefly, mice were given test substance and were tested for prevention of seizures by application of electrical current to the corneas by 2 metal electrodes covered with gauze and saturated with 0.9% sodium chloride. Electroshock stimulation was delivered by a constant-current device that produced 60 Hz sinusoidal electrical current for 0.2 seconds. For rats, maximal electroshock stimulation consisted of 120 mA of current. […] Any mouse that fell from the wire mesh during a 60 second test period was rated as ataxic.

[2] = target: T1, Gabapentin Receptor (Rattus norvegicus, UniProt P54290); assay: Gabapentin receptor binding, displacement of [3H]-gabapentin
T1 construct: partially purified synaptic plasma membranes were prepared from rat neocortex; from tissue; host or cells: rat neocortex synaptic plasma membranes
Experimental: For binding studies, partially purified synaptic plasma membranes were prepared from rat neocortex using sucrose density gradients. The cerebral cortex of 10 rats was dissected from the rest of the brain and homogenized in 10 volumes (weight/volume) of ice-cold 0.32 M sucrose in 5 mM tris-acetate (pH 7.4) using a glass homogenizer fitted with a teflon pestle (10-15 strokes at 200 rpm). The homogenate was centrifuged at 100 g for 10 minutes and the supernatant collected and kept on ice. The pellet (PI) was rehomogenized in 20 mL of tris-sucrose and the homogenate recentrifuged. The combined supernatants were centrifuged at 21,500 g for 20 minutes. The pellet (P2) was resuspended in 1.2 M tris-sucrose and 15 mL of this mixture was added to ultracentrifuge tubes. On to this, 10 mL of 0.9 M sucrose was layered followed by a final layer of 5 mM tris-acetate, pH 8.0. Tubes were centrifuged at 100,000 g for 90 minutes. The synaptic plasma membranes located at the 0.9/1.2 M sucrose interface. were collected, resuspended in 50 mL of 5 mM tris-acetate, pH 7.4, and centrifuged at 48,000 g. The final pellet was resuspended in 50 mL of tris-acetate, pH 7.4, aliquoted, and then frozen until use.
The assay tissue (0.1 to 0.3 mg protein) was incubated with […] [^3H]-gabapentin in 10 mM HEPES buffer (pH 7.4 at 20° C., sodium free) in the presence of varying concentrations of test compound for 30 minutes at room temperature, before filtering onto GFB filters under vacuum. Filters were washed 3 times with 5 mL of ice cold 100 mM NaCl solution and dpm bound to filters was determined using liquid scintillation counting. Nonspecific binding was defined by that observed in the presence of […] gabapentin.

[3] = Ataxia in mice (inverted screen procedure); details: male, CF-1, in vivo, mouse
Experimental: as §1

[4] = system: maximal electroshock seizures in mice; assay: Maximal electroshock in mice; format: in vivo; details: mouse
From the text: For anticonvulsant testing, male CF-1 strain mice (20-25 g) and male Sprague-Dawley rats (75-115 g) were obtained from Charles River Laboratories and were maintained with free access to food and water before testing. Maximal electroshock was delivered with corneal electrodes by conventional methods (Krall, supra, 1975) except that low-intensity electroshock with mice consisted of 17 mA of current rather than the conventional 50 mA (zero to peak). Briefly, mice were given test substance and were tested for prevention of seizures by application of electrical current to the corneas by 2 metal electrodes covered with gauze and saturated with 0.9% sodium chloride. Electroshock stimulation was delivered by a constant-current device that produced 60 Hz sinusoidal electrical current for 0.2 seconds. For rats, maximal electroshock stimulation consisted of 120 mA of current. Ataxia in mice was assessed by the inverted screen procedure in which mice were individually placed on a 4.0-inch square of wire mesh that was subsequently inverted (Coughenour, supra, 1978). Any mouse that fell from the wire mesh during a 60 second test period was rated as ataxic.
All drugs were freely soluble in aqueous media. For in vivo studies, drug solutions were made in 0.9% sodium chloride and given in a volume of 1 mL/100 g body weight. Intravenous administration was given by bolus injection into the retro-orbital sinus in mice. Oral administrations were by intragastric gavage.

[5] = IV, read-out: IV Mouse Ataxia (ED50)
[6] = IV, read-out: IV Mouse Maximal Electroshock (ED50)
[7] = PO, read-out: PO Mouse Maximal Electroshock (ED50)

T1 sequence (P54290 25-1091): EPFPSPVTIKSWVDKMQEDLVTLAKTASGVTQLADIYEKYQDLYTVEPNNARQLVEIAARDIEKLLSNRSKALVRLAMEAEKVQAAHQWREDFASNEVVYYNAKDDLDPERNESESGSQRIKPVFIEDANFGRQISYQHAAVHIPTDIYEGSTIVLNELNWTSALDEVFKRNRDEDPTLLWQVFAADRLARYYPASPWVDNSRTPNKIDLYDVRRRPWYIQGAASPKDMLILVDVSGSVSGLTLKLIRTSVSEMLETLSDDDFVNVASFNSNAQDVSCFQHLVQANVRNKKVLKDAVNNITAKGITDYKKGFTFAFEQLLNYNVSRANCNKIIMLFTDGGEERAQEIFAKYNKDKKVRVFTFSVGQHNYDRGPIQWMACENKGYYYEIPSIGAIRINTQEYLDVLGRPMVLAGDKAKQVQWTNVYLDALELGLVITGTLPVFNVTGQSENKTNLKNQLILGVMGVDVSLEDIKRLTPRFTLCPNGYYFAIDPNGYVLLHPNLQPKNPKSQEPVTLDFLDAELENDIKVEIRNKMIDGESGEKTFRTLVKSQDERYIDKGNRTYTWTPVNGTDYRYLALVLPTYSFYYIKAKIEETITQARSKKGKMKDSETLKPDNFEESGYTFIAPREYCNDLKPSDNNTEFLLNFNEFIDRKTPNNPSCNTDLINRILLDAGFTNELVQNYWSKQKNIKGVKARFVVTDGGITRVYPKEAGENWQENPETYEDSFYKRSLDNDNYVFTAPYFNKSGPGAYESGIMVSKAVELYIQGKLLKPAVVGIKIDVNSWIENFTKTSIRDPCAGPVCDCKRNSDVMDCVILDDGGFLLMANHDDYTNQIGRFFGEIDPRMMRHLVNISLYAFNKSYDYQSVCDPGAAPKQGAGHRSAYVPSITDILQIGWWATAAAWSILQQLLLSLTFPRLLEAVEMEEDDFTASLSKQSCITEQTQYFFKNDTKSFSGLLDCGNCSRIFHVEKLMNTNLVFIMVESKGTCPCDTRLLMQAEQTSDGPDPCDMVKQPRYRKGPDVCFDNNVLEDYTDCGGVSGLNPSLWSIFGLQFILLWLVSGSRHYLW

Row | SMILES | ED50 [1] | time of maximum protection, threshold maximal electroshock ([1]; mice, 10 mg/kg intravenously, tested 1 hour to 8 hours) | # Protected, threshold maximal electroshock ([1]; mice, 10 mg/kg intravenously, time of testing 1 hr.) | # Protected, threshold maximal electroshock ([1]; mice, 10 mg/kg intravenously, time of testing 2 hr.) | # Protected, threshold maximal electroshock ([1]; mice, 10 mg/kg intravenously, time of testing 4 hr.) | # Protected, threshold maximal electroshock ([1]; mice, 10 mg/kg intravenously, time of testing 8 hr.) | calculated EDSO, threshold maximal electroshock dose response ([1]; mice, intravenously, two hour testing time) | pIC50 [2] | ED50 [3, 5] | ED50 [4, 6] | ED50 [4, 7] | ED50 ([3]; (IP), read-out: Mouse Ataxia (ED50))
1 | CC(C)CC(CN)CC(=O)O (racemic) [(R,S)-i-C4H9, H, 4-amino-3-(2-methylpropyl)butanoic acid] | 4.8 mg/kg | 2 h | 2/10 | 8/10 | 4/10 | 2/10 | 2.07 mg/kg | 7.00 | > 100 mg/kg | 10 mg/kg | 47 mg/kg | 
2 | CC(C)C[C@@H](CN)CC(=O)O [(R)-IBG, (R)(−)-4-amino-3-(2-methylpropyl)butanoic acid] | > 100 mg/kg |  |  |  |  |  |  | 6.07 | > 100 mg/kg | > 100 mg/kg |  | 
3 | CC(C)C[C@H](CN)CC(=O)O [(S)-IBG, (S)-(+)-4-Amino-3-(2-methylpropyl)butanoic Acid] | 4 mg/kg |  |  |  |  |  |  | 7.36 | > 300 mg/kg | 18 mg/kg | 12 mg/kg | 
4 | NCC1(CC(=O)O)CCCCC1 [Gabapentin, gabapentin, reference compound] | 4.3 mg/kg |  |  |  |  |  |  |  |  | 75 mg/kg | 200 mg/kg | > 100 mg/kg
